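Step 1: Grow cells in 96-well plates. Step 2: Expose to compound for 48 hours at 5 concentrations. Step 3: Interpolate endpoints linearly; if unreached, use highest concentration. Abbreviation: GI50, concentration required for 50% inhibition of growth. TGI marks complete inhibition of growth.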
Experiments:
Assay in all cases: NCI tumour cell line growth inhibition, 48 h
SF-539 CNS = tested on: SF-539 CNS
UACC-62 melanoma = tested on: UACC-62 melanoma
UACC-257 melanoma = tested on: UACC-257 melanoma
SK-MEL-2 melanoma = tested on: SK-MEL-2 melanoma
K-562 leukemia = tested on: K-562 leukemia
ACHN renal = tested on: ACHN renal
SF-268 CNS = tested on: SF-268 CNS
NCI-H226 lung = tested on: NCI-H226 lung
HT29 colon = tested on: HT29 colon
MDA-MB-231 breast = tested on: MDA-MB-231 breast

SMILES	TGI (SF-539 CNS) [µM]	TGI (UACC-62 melanoma) [µM]	TGI (UACC-257 melanoma) [µM]	TGI (SK-MEL-2 melanoma) [µM]	TGI (K-562 leukemia) [µM]	TGI (ACHN renal) [µM]	TGI (SF-268 CNS) [µM]	TGI (NCI-H226 lung) [µM]	TGI (HT29 colon) [µM]	TGI (MDA-MB-231 breast) [µM]	GI50 (SF-539 CNS) [µM]	GI50 (UACC-62 melanoma) [µM]	GI50 (UACC-257 melanoma) [µM]	GI50 (SK-MEL-2 melanoma) [µM]	GI50 (K-562 leukemia) [µM]	GI50 (ACHN renal) [µM]	GI50 (SF-268 CNS) [µM]	GI50 (NCI-H226 lung) [µM]	GI50 (HT29 colon) [µM]	GI50 (MDA-MB-231 breast) [µM]
CCc1nc2c(c(N(C)C)c1C(=O)OC)CCc1ccccc1-2	> 100	40.4	68.9	39.5	77.3	> 100	> 100	79	> 100	87.8	–	–	–	–	–	–	–	–	–	–
CNC(=S)N1CCN(C(C)=O)C1=S	52.8	> 100	> 100	5.36	> 100	> 100	> 100	62	> 100	16	–	–	–	–	–	–	–	–	–	–
CC1(C)C=C(/C=C2/N(S(=O)(=O)C(F)(F)F)C(/C=C3/N(S(=O)(=O)C(F)(F)F)C(C)(C#N)CC3(C)C)=CC2(C)C)N=C1/C=C1/CC(C)(C)C(=O)N1 (stereo not given)	84.5	69.1	> 100	> 100	> 100	> 100	36	> 100	> 100	> 100	–	–	–	–	–	–	–	–	–	–
CC[C@]12C=CCN3CCC4(c5cc([C@@]6(C(=O)OC)CC7CN(CCc8c6[nH]c6ccccc86)CC6CCCCC67)c(OC)cc5N(C)C4[C@](O)(C(=O)OC)C1OC(C)=O)[C@@H]32 (stereo not given in full)	< 0.01	1.7	18.8	0.145	> 21.7	11.6	1.47	2.42	< 0.01	0.0655	–	–	–	–	–	–	–	–	–	–
Cc1nc2c(=O)n(-c3ccccc3)c(=O)n(-c3ccccc3)c2o1	> 100	> 100	> 100	> 100	> 100	> 100	> 100	> 100	> 100	> 100	–	–	–	–	–	–	–	–	–	–
COc1ccc(-c2cc3cc(Cl)cc(Cl)c3oc2=O)cc1OC	> 100	> 100	> 100	> 100	> 100	> 100	> 100	> 100	> 100	> 100	–	–	–	–	–	–	–	–	–	–
CN(C)CCNCCCNc1c2ccccc2nc2cccc([N+](=O)[O-])c12	0.263	0.236	0.525	0.0523	< 0.0184	0.0312	0.105	0.102	< 0.0277	0.0832	–	–	–	–	–	–	–	–	–	–
CN(C)/N=N/c1nc2c(c(=O)n(C)c(=O)n2C)n1CC1CO1 (stereo not given)	22.5	24.8	43.9	23.1	60.2	41.9	33.6	38.3	35.1	68.1	–	–	–	–	–	–	–	–	–	–
O=C([C@H](O)[C@@H](O)c1cccc(Cl)c1)C12CC3CC(CC(C3)C1)C2	3.61	3.32	4.8	4.24	> 100	3.56	4.04	12.3	6.17	5.44	–	–	–	–	–	–	–	–	–	–
C[As+](C)(c1ccc(Br)c([N+](=O)[O-])c1)c1ccc(Br)c([N+](=O)[O-])c1.O=[N+]([O-])O	> 100	> 100	> 100	> 100	> 100	> 100	> 100	> 100	> 100	> 100	–	–	–	–	–	–	–	–	–	–
Cc1cc(-c2cc(C(C)(C)C)c(O)c(C(C)(C)C)c2)c(C)cc1-c1cc(C(C)(C)C)c(O)c(C(C)(C)C)c1	> 100	> 100	> 100	> 100	> 100	> 100	> 100	> 100	> 100	> 100	–	–	–	–	–	–	–	–	–	–
CC/C=N\N1C(N)=C(C#N)C(C#N)(C#N)C1CC (stereo not given)	80.8	> 100	> 100	> 100	> 100	> 100	> 100	> 100	86.4	> 100	–	–	–	–	–	–	–	–	–	–
O=C1c2cc3c(cc2-c2c1c1ccc(Cl)cc1c(=O)n2CCCn1ccnc1)OCO3	0.0649	0.0296	> 100	> 100	12.6	1.09	> 100	> 100	> 100	> 100	< 0.01	< 0.01	0.0584	0.649	0.0229	< 0.01	< 0.01	0.0186	0.0174	0.959
CC1=C(C(=O)OCCO[N+](=O)[O-])C(c2ccccc2[N+](=O)[O-])C(C(=O)OC(C)C)=C(C)N1 (stereo not given)	33.2	28.6	28.7	30.5	> 100	87.6	47.1	35	30.3	29	–	–	–	–	–	–	–	–	–	–
CCOC(=O)[C@@H](Cc1ccc(CCl)cc1)NC(C)=O	36.4	31.5	40.2	39.6	> 100	43.5	67	98.5	> 100	81.6	–	–	–	–	–	–	–	–	–	–

Source: PubChem BioAssay (NCI)
